Source: patent US12195482B1 (Arcus Biosciences, Inc., priority 2022, dated 2025)

How the values were obtained:
[1] = molecular target: T1, recombinant human TYRO3 (Homo sapiens, UniProt Q06418); experiment: Biochemical potency, HTRF KinEASE-TK kinase assay; conditions: 1 nM TYRO3, 700 μM ATP
T1 construct: purchased Invitrogen
T1 sequence (Q06418 41-890): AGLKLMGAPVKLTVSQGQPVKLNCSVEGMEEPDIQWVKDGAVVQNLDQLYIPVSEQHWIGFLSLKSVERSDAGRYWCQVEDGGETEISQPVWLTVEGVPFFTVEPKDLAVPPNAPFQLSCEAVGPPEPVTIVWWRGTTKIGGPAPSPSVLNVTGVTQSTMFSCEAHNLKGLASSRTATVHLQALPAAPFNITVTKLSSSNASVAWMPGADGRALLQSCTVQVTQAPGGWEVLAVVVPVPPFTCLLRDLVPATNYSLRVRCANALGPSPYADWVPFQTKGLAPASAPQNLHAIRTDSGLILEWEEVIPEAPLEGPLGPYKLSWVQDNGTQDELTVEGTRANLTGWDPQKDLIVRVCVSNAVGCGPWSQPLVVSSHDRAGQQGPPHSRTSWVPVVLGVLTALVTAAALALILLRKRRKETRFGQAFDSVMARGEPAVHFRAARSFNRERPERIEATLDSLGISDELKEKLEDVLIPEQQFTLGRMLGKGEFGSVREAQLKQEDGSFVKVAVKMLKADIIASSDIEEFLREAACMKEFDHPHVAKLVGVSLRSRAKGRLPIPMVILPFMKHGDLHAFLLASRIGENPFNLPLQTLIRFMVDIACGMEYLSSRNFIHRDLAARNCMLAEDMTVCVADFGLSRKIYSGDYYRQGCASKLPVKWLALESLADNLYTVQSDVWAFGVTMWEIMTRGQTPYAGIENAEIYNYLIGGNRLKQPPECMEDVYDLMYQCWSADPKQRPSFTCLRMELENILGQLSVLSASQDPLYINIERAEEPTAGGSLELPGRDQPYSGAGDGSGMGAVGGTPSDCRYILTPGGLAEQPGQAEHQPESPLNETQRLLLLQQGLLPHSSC
Procedure, shortened: (§1)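 Compounds preincubated 1 h at RT with enzyme in 50 mM HEPES pH 7.4, 10 mM MgCl2, 0.01% BSA, 1 mM DTT; reactions then ran 2 h at RT with 5 nM AXL or 1 nM TYRO3/MER, 800 nM TK substrate-biotin, 700 μM ATP, 1% DMSO. HTRF 665/620 ratio read; percent activity calculated.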

[2] = molecular target: T2, recombinant human MER (Homo sapiens, UniProt Q12866); experiment: Biochemical potency, HTRF KinEASE-TK kinase assay; conditions: 1 nM MER, 700 μM ATP
T2 construct: purchased Invitrogen
T2 sequence (Q12866 21-999): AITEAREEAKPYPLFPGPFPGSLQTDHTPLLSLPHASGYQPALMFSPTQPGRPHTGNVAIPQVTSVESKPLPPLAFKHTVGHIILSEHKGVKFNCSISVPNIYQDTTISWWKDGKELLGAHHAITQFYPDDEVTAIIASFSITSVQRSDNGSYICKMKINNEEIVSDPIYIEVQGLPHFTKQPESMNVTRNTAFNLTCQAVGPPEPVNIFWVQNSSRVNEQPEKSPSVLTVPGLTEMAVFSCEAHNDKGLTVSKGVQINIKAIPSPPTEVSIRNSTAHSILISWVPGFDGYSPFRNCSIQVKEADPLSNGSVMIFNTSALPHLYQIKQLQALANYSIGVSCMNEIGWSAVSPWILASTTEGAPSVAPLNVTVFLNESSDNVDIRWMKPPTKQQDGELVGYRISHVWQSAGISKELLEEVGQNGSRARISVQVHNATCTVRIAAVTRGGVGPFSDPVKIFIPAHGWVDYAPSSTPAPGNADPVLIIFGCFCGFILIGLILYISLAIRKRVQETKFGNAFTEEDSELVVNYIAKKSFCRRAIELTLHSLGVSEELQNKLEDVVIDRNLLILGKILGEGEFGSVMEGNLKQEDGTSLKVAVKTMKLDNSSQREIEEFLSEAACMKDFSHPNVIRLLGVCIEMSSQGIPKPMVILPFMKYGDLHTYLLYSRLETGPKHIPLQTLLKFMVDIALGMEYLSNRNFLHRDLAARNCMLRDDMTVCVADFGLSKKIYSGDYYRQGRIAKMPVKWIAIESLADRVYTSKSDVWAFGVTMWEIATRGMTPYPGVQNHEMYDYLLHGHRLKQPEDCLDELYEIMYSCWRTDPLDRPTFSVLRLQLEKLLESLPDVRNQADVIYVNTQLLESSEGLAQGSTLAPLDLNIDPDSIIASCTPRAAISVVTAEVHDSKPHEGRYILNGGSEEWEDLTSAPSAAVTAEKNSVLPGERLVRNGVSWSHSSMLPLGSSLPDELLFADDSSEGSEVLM
Procedure, shortened: as §1

| SMILES | IC50 [1] [nM] | IC50 [2] [nM] |
| --- | --- | --- |
| C[C@H]1COC(=O)N1c1cccnc1-c1ccc(-c2n[nH]c3ncc(-c4ccc5c(c4)CC[C@@H](N4C6COCC4C6)CC5)cc23)cc1 [Example 125, (4S)-4-Methyl-3-[2-(4-{5-[(7S)-7-{3-oxa-6-azabicyclo[3.1.1]heptan-6-yl}-6,7,8,9-tetrahydro-5H-benzo[7]annulen-2-yl]-1H-pyrazolo[3,4-b]pyridin-3-yl}phenyl)pyridin-3-yl]-1,3-oxazolidin-2-one] | < 100 | < 100 |
| Cn1cnnc1-c1ccc(-c2n[nH]c3ncc(-c4ccc5c(c4)CC[C@@H](N4C6COCC4C6)CC5)cc23)cc1 [Example 169, 6-[(7S)-2-{3-[4-(4-Methyl-4H-1,2,4-triazol-3-yl)phenyl]-1H-pyrazolo[3,4-b]pyridin-5-yl}-6,7,8,9-tetrahydro-5H-benzo[7]annulen-7-yl]-3-oxa-6-azabicyclo[3.1.1]heptane] | < 100 | < 100 |
| CO[C@H]1C[C@@H](N[C@H]2CCc3ccc(-c4cnc5[nH]nc(-c6ccc(-c7ncccc7C)cc6)c5c4)cc3CC2)C1 [Example 131, (7S)-2-{3-[4-(3-Methylpyridin-2-yl)phenyl]-1H-pyrazolo[3,4-b]pyridin-5-yl}-N-[cis-3-methoxycyclobutyl]-6,7,8,9-tetrahydro-5H-benzo[7]annulen-7-amine] | < 100 | < 100 |
| O=C1CCCN1c1cccnc1-c1ccc(-c2c[nH]c3ncc(-c4ccc5c(c4)CC[C@@H](N4C6COCC4C6)CC5)cc23)cc1 [Example 7, 1-[2-(4-{5-[(7S)-7-{3-Oxa-6-azabicyclo[3.1.1]heptan-6-yl}-6,7,8,9-tetrahydro-5H-benzo[7]annulen-2-yl]-1H-pyrrolo[2,3-b]pyridin-3-yl}phenyl)pyridin-3-yl]pyrrolidin-2-one] | < 100 | 100 to 1000 |
| Cc1ncc(C)c(-c2ccc(-c3c[nH]c4ncc(-c5ccc6c(c5)CC[C@@H](N5C7COCC5C7)CC6)cc34)cc2)n1 [Example 123, 6-[(7S)-2-{3-[4-(2,5-Dimethylpyrimidin-4-yl)phenyl]-1H-pyrrolo[2,3-b]pyridin-5-yl}-6,7,8,9-tetrahydro-5H-benzo[7]annulen-7-yl]-3-oxa-6-azabicyclo[3.1.1]heptane] | < 100 | < 100 |
| c1ccc(-c2ccc(-c3n[nH]c4ncc(-c5ccc6c(c5)CC[C@@H](N5C7COCC5C7)CC6)cc34)cc2)nc1 [Example 154, 6-[(7S)-2-{3-[4-(Pyridin-2-yl)phenyl]-2H-pyrazolo[3,4-b]pyridin-5-yl}-6,7,8,9-tetrahydro-5H-benzo[7]annulen-7-yl]-3-oxa-6-azabicyclo[3.1.1]heptane] | 100 to 1000 | 100 to 1000 |
| Cc1ncc(C)c(-c2ccc(-c3n[nH]c4ncc(-c5ccc6c(c5)CC[C@@H](N5C7COCC5C7)CC6)cc34)cc2)n1 [Example 122, 6-[(7S)-2-{3-[4-(2,5-Dimethylpyrimidin-4-yl)phenyl]-1H-pyrazolo[3,4-b]pyridin-5-yl}-6,7,8,9-tetrahydro-5H-benzo[7]annulen-7-yl]-3-oxa-6-azabicyclo[3.1.1]heptane] | < 100 | 100 to 1000 |
| Cc1cccnc1-c1ccc(-c2n[nH]c3ncc(-c4ccc5c(c4)CC[C@@H](N[C@H]4CCCOC4)CC5)cc23)cc1 [Example 129, (3S)—N-[(7S)-2-{3-[4-(3-Methylpyridin-2-yl)phenyl]-1H-pyrazolo[3,4-b]pyridin-5-yl}-6,7,8,9-tetrahydro-5H-benzo[7]annulen-7-yl]oxan-3-amine] | < 100 | < 100 |
| Cc1cccnc1-c1ccc(-c2n[nH]c3ncc(-c4ccc5c(c4)CC[C@@H](N4C[C@@H]6C[C@H]4CO6)CC5)cc23)cc1 [Example 130, (1S,4S)-5-[(7S)-2-{3-[4-(3-Methylpyridin-2-yl)phenyl]-1H-pyrazolo[3,4-b]pyridin-5-yl}-6,7,8,9-tetrahydro-5H-benzo[7]annulen-7-yl]-2-oxa-5-azabicyclo[2.2.1]heptane] | < 100 | < 100 |
| C[C@@H]1CCCN1[C@@]1(C)CCc2ccc(-c3cnc4[nH]cc(-c5ccc(-c6ccccn6)cc5)c4c3)cc2CC1 [Example 156, 2-(4-{5-[(7S)-7-Methyl-7-[(2R)-2-methylpyrrolidin-1-yl]-6,7,8,9-tetrahydro-5H-benzo[7]annulen-2-yl]-1H-pyrrolo[2,3-b]pyridin-3-yl}phenyl)pyridine] | 100 to 1000 | 100 to 1000 |
| Cn1ccnc1-c1ccc(-c2n[nH]c3ncc(-c4ccc5c(c4)CC[C@@H](N4C6COCC4C6)CC5)cc23)cc1 [Example 111, 6-[(7S)-2-{3-[4-(1-Methyl-1H-imidazol-2-yl)phenyl]-1H-pyrazolo[3,4-b]pyridin-5-yl}-6,7,8,9-tetrahydro-5H-benzo[7]annulen-7-yl]-3-oxa-6-azabicyclo[3.1.1]heptane] | < 100 | < 100 |
| c1cnc(-c2ccc(-c3n[nH]c4ncc(-c5ccc6c(c5)CC[C@@H](N5C7COCC5C7)CC6)cc34)cc2)c(C2CC2)c1 [Example 179, 6-[(7S)-2-{3-[4-(3-Cyclopropylpyridin-2-yl)phenyl]-1H-pyrazolo[3,4-b]pyridin-5-yl}-6,7,8,9-tetrahydro-5H-benzo[7]annulen-7-yl]-3-oxa-6-azabicyclo[3.1.1]heptane] | 100 to 1000 | 100 to 1000 |
| CN(C(=O)C1CC1)c1cccnc1-c1ccc(-c2n[nH]c3ncc(-c4ccc5c(c4)CC[C@@H](N4C6COCC4C6)CC5)cc23)cc1 [Example 128, N-Methyl-N-[2-(4-{5-[(7S)-7-{3-oxa-6-azabicyclo[3.1.1]heptan-6-yl}-6,7,8,9-tetrahydro-5H-benzo[7]annulen-2-yl]-1H-pyrazolo[3,4-b]pyridin-3-yl}phenyl)pyridin-3-yl]cyclopropanecarboxamide] | < 100 | 100 to 1000 |
| c1ccc(-c2ccc(-c3c[nH]c4ncc(-c5ccc6c(c5)CC[C@@H](N5C7COCC5C7)CC6)cc34)cc2)nc1 [Example 155, 6-[(7S)-2-{3-[4-(Pyridin-2-yl)phenyl]-1H-pyrrolo[2,3-b]pyridin-5-yl}-6,7,8,9-tetrahydro-5H-benzo[7]annulen-7-yl]-3-oxa-6-azabicyclo[3.1.1]heptane] | 100 to 1000 | > 1000 |
| Cc1cc(F)cnc1-c1ccc(-c2c[nH]c3ncc(-c4ccc5c(c4)CC[C@@H](N4C6COCC4C6)CC5)cc23)cc1 [Example 29, 6-[(7S)-3-[3-[4-(5-Fluoro-3-methylpyridin-2-yl)phenyl]-1H-pyrrolo[2,3-b]pyridin-5-yl]-6,7,8,9-tetrahydro-5H-benzo[7]annulen-7-yl]-3-oxa-6-azabicyclo[3.1.1]heptane] | 100 to 1000 | 100 to 1000 |
| Cc1nccnc1-c1ccc(-c2n[nH]c3ncc(-c4ccc5c(c4)CC[C@@H](N4C6COCC4C6)CC5)cc23)cc1 [Example 175, 6-[(7S)-2-{3-[4-(3-Methylpyrazin-2-yl)phenyl]-1H-pyrazolo[3,4-b]pyridin-5-yl}-6,7,8,9-tetrahydro-5H-benzo[7]annulen-7-yl]-3-oxa-6-azabicyclo[3.1.1]heptane] | 100 to 1000 | 100 to 1000 |
